Reference: the supplement of paper PMC10307832

What was measured:
Experiment in all cases: relative viability (nuclei count vs DMSO), 5 days (fraction); higher = more cells survive
NCI-H3122 = tested on: NCI-H3122
Method in brief: (§1)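 Dosing by pin tool came one day after lung cancer cell lines were seeded in 1536-well plates, using either one drug or a fixed anchor-drug dose plus five library-drug doses (not always all listed) in √10 steps. After 5 days, nuclei were counted on 4× images. Relative viability is treated-well nuclei count divided by vehicle-well nuclei count, and values are medians of duplicate plates.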

NCI-H522 = tested on: NCI-H522
Method in brief: as §1

LU99A = tested on: LU99A
Method in brief: as §1

NCI-H1650 = tested on: NCI-H1650
Method in brief: as §1

LK-2 = tested on: LK-2
Method in brief: as §1

PC-3 [JPC-3] = tested on: PC-3 [JPC-3]
Method in brief: as §1

NCI-H2170 = tested on: NCI-H2170
Method in brief: as §1

NCI-H2228 = tested on: NCI-H2228
Method in brief: as §1

HCC-827 = tested on: HCC-827
Method in brief: as §1

NCI-H441 = tested on: NCI-H441
Method in brief: as §1

EKVX = tested on: EKVX
Method in brief: as §1

NCI-H1355 = tested on: NCI-H1355
Method in brief: as §1

SW 1573 = tested on: SW 1573
Method in brief: as §1

H3255 = tested on: H3255
Method in brief: as §1

NCI-H1993 = tested on: NCI-H1993
Method in brief: as §1

HOP-62 = tested on: HOP-62
Method in brief: as §1

UMC-11 = tested on: UMC-11
Method in brief: as §1

LXF-289 = tested on: LXF-289
Method in brief: as §1

NCI-H2405 = tested on: NCI-H2405
Method in brief: as §1

LCLC-97TM1 = tested on: LCLC-97TM1
Method in brief: as §1

EPLC-272H = tested on: EPLC-272H
Method in brief: as §1

SK-LU-1 = tested on: SK-LU-1
Method in brief: as §1

ChaGo-K-1 = tested on: ChaGo-K-1
Method in brief: as §1

With `CCNC(=O)c1noc(-c2cc(C(C)C)c(O)cc2O)c1-c1ccc(CN2CCOCC2)cc1` [Luminespib] + N=C(N)NC(=N)NCCc1ccccc1 [Phenformin] (partner 250 µM) the relative viability (NCI-H3122; first compound 0.002 µM) was 0.427, the relative viability (NCI-H3122; first compound 0.006325 µM) was 0.32 and the relative viability (NCI-H3122; first compound 0.02 µM) was 0.132. The relative viability (NCI-H3122; first compound 0.06325 µM) was 0.0959, the relative viability (NCI-H3122; first compound 0.2 µM) was 0.0895 and the relative viability (NCI-H522; first compound 0.002 µM) was 0.707. It also gave a relative viability (NCI-H522; first compound 0.006325 µM) of 0.657, a relative viability (NCI-H522; first compound 0.02 µM) of 0.601 and a relative viability (NCI-H522; first compound 0.06325 µM) of 0.546. The relative viability (NCI-H522; first compound 0.2 µM) was 0.362, the relative viability (LU99A; first compound 0.002 µM) was 0.818 and the relative viability (LU99A; first compound 0.006325 µM) was 0.71. The relative viability (LU99A; first compound 0.02 µM) was 0.535, the relative viability (LU99A; first compound 0.06325 µM) was 0.167 and the relative viability (LU99A; first compound 0.2 µM) was 0.125. The relative viability (NCI-H1650; first compound 0.002 µM) was 0.48, the relative viability (NCI-H1650; first compound 0.006325 µM) was 0.219 and the relative viability (NCI-H1650; first compound 0.02 µM) was 0.165. For the same compound, the relative viability (NCI-H1650; first compound 0.06325 µM) was 0.15, the relative viability (NCI-H1650; first compound 0.2 µM) was 0.159 and the relative viability (LK-2; first compound 0.002 µM) was 0.474. For the same compound, the relative viability (LK-2; first compound 0.006325 µM) was 0.436, the relative viability (LK-2; first compound 0.02 µM) was 0.252 and the relative viability (LK-2; first compound 0.06325 µM) was 0.0992. The relative viability (LK-2; first compound 0.2 µM) was 0.141, the relative viability (PC-3 [JPC-3]; first compound 0.002 µM) was 0.463 and the relative viability (PC-3 [JPC-3]; first compound 0.006325 µM) was 0.457. It also gave a relative viability (PC-3 [JPC-3]; first compound 0.02 µM) of 0.462, a relative viability (PC-3 [JPC-3]; first compound 0.06325 µM) of 0.472 and a relative viability (PC-3 [JPC-3]; first compound 0.2 µM) of 0.242. It also gave a relative viability (NCI-H2170; first compound 0.002 µM) of 0.405, a relative viability (NCI-H2170; first compound 0.006325 µM) of 0.398 and a relative viability (NCI-H2170; first compound 0.02 µM) of 0.376. For the same compound, the relative viability (NCI-H2170; first compound 0.06325 µM) was 0.236, the relative viability (NCI-H2170; first compound 0.2 µM) was 0.158 and the relative viability (NCI-H2228; first compound 0.002 µM) was 0.314. For the same compound, the relative viability (NCI-H2228; first compound 0.006325 µM) was 0.288, the relative viability (NCI-H2228; first compound 0.02 µM) was 0.115 and the relative viability (NCI-H2228; first compound 0.06325 µM) was 0.102. For the same compound, the relative viability (NCI-H2228; first compound 0.2 µM) was 0.0912, the relative viability (HCC-827; first compound 0.002 µM) was 0.385 and the relative viability (HCC-827; first compound 0.006325 µM) was 0.384. It also gave a relative viability (HCC-827; first compound 0.02 µM) of 0.369, a relative viability (HCC-827; first compound 0.06325 µM) of 0.281 and a relative viability (HCC-827; first compound 0.2 µM) of 0.141. The relative viability (NCI-H441; first compound 0.002 µM) was 0.841, the relative viability (NCI-H441; first compound 0.006325 µM) was 0.689 and the relative viability (NCI-H441; first compound 0.02 µM) was 0.732. The relative viability (NCI-H441; first compound 0.06325 µM) was 0.216, the relative viability (NCI-H441; first compound 0.2 µM) was 0.135 and the relative viability (EKVX; first compound 0.002 µM) was 0.236. The relative viability (EKVX; first compound 0.006325 µM) was 0.209, the relative viability (EKVX; first compound 0.06325 µM) was 0.223 and the relative viability (EKVX; first compound 0.2 µM) was 0.104. The relative viability (NCI-H1355; first compound 0.002 µM) was 0.431, the relative viability (NCI-H1355; first compound 0.006325 µM) was 0.456 and the relative viability (NCI-H1355; first compound 0.02 µM) was 0.382. For the same compound, the relative viability (NCI-H1355; first compound 0.06325 µM) was 0.254, the relative viability (NCI-H1355; first compound 0.2 µM) was 0.17 and the relative viability (SW 1573; first compound 0.002 µM) was 0.39. For the same compound, the relative viability (SW 1573; first compound 0.006325 µM) was 0.339, the relative viability (SW 1573; first compound 0.02 µM) was 0.262 and the relative viability (SW 1573; first compound 0.06325 µM) was 0.0845. It also gave a relative viability (SW 1573; first compound 0.2 µM) of 0.0847, a relative viability (H3255; first compound 0.002 µM) of 0.328 and a relative viability (H3255; first compound 0.006325 µM) of 0.347. For the same compound, the relative viability (H3255; first compound 0.06325 µM) was 0.319, the relative viability (H3255; first compound 0.2 µM) was 0.187 and the relative viability (NCI-H1993; first compound 0.002 µM) was 0.46. The relative viability (NCI-H1993; first compound 0.006325 µM) was 0.474, the relative viability (NCI-H1993; first compound 0.02 µM) was 0.476 and the relative viability (NCI-H1993; first compound 0.06325 µM) was 0.394. It also gave a relative viability (NCI-H1993; first compound 0.2 µM) of 0.36, a relative viability (HOP-62; first compound 0.002 µM) of 0.674 and a relative viability (HOP-62; first compound 0.006325 µM) of 0.721. For the same compound, the relative viability (HOP-62; first compound 0.02 µM) was 0.696, the relative viability (HOP-62; first compound 0.06325 µM) was 0.364 and the relative viability (HOP-62; first compound 0.2 µM) was 0.165. For the same compound, the relative viability (UMC-11; first compound 0.002 µM) was 0.346, the relative viability (UMC-11; first compound 0.006325 µM) was 0.338 and the relative viability (UMC-11; first compound 0.02 µM) was 0.291. For the same compound, the relative viability (UMC-11; first compound 0.06325 µM) was 0.213, the relative viability (UMC-11; first compound 0.2 µM) was 0.168 and the relative viability (LXF-289; first compound 0.002 µM) was 0.429. The relative viability (LXF-289; first compound 0.006325 µM) was 0.482, the relative viability (LXF-289; first compound 0.02 µM) was 0.593 and the relative viability (LXF-289; first compound 0.06325 µM) was 0.163. For the same compound, the relative viability (LXF-289; first compound 0.2 µM) was 0.0721, the relative viability (NCI-H2405; first compound 0.002 µM) was 0.417 and the relative viability (NCI-H2405; first compound 0.006325 µM) was 0.314. For the same compound, the relative viability (NCI-H2405; first compound 0.02 µM) was 0.514, the relative viability (NCI-H2405; first compound 0.06325 µM) was 0.193 and the relative viability (NCI-H2405; first compound 0.2 µM) was 0.196. It also gave a relative viability (LCLC-97TM1; first compound 0.002 µM) of 0.399, a relative viability (LCLC-97TM1; first compound 0.006325 µM) of 0.374 and a relative viability (LCLC-97TM1; first compound 0.02 µM) of 0.426. It also gave a relative viability (LCLC-97TM1; first compound 0.06325 µM) of 0.428, a relative viability (LCLC-97TM1; first compound 0.2 µM) of 0.102 and a relative viability (EPLC-272H; first compound 0.002 µM) of 0.307. For the same compound, the relative viability (EPLC-272H; first compound 0.006325 µM) was 0.291, the relative viability (EPLC-272H; first compound 0.06325 µM) was 0.271 and the relative viability (EPLC-272H; first compound 0.2 µM) was 0.0832. For the same compound, the relative viability (SK-LU-1; first compound 0.002 µM) was 0.53, the relative viability (SK-LU-1; first compound 0.006325 µM) was 0.411 and the relative viability (SK-LU-1; first compound 0.02 µM) was 0.192. The relative viability (SK-LU-1; first compound 0.06325 µM) was 0.0958, the relative viability (SK-LU-1; first compound 0.2 µM) was 0.0878 and the relative viability (ChaGo-K-1; first compound 0.002 µM) was 0.504. It also gave a relative viability (ChaGo-K-1; first compound 0.006325 µM) of 0.456, a relative viability (ChaGo-K-1; first compound 0.02 µM) of 0.467 and a relative viability (ChaGo-K-1; first compound 0.06325 µM) of 0.303. The relative viability (ChaGo-K-1; first compound 0.2 µM) was 0.152.
